Measurements: patent publication US9783537B2, “3-(4-ethylnylphenyl) pyridopyrimidinone compounds and process for preparation thereof useful as potential anticancer agents” (Council of Scientific & Industrial Research, priority 2013, dated 2017)
Like-named read-outs stand apart in the source and are kept apart here.

Tests used:
TK-10 = experiment: SRB 48 h growth assay, Renal TK-10; type: cell-based, human; details: TK-10, Renal
HCT-116 = experiment: SRB 48 h growth assay, Colon HCT-116; type: cell-based, human; details: Homo sapiens, HCT-116, Colon
CCRF-CEM = experiment: SRB 48 h growth assay, Leukemia CCRF-CEM; type: cell-based, human
NCI/ADR-RES = experiment: SRB 48 h growth assay, Ovarian NCI/ADR-RES; type: cell-based, human
786-0 = experiment: SRB 48 h growth assay, Renal 786-0; type: cell-based, human; details: 786-0, Renal
MCF7 = experiment: SRB 48 h growth assay, Breast MCF7; type: cell-based, human
PC-3 = experiment: SRB 48 h growth assay, Prostate PC-3; type: cell-based, human; details: PC-3, Prostate
MDA-MB-435 = experiment: SRB 48 h growth assay, Melanoma MDA-MB-435; type: cell-based, human; details: MDA-MB-435, Melanoma
HOP-62 = experiment: SRB 48 h growth assay, Non-small Cell Lung HOP-62; type: cell-based, human; details: HOP-62, Non-small Cell Lung
HOP-92 = experiment: SRB 48 h growth assay, Non-small Cell Lung HOP-92; type: cell-based, human; details: HOP-92, Non-small Cell Lung
[1] = system: seven ovarian cancer cell lines (IGROV1, OVCAR-3, OVCAR-4, OVCAR-5, OVCAR-8, NCI/ADR-RES and SK-OV-3); experiment: in vitro anticancer activity, ovarian panel; type: cell-based; details: Homo sapiens, exposure at least 48 h, read-out: GI50, range over panel
[2] = system: six breast cancer cell line (MCF-7, MDA-MB-231/ATCC, HS 578T, TD-47D, MDA-MB-468 and BT-549); experiment: in vitro anticancer activity, breast panel; type: cell-based; details: Homo sapiens; six breast cancer cell lines, exposure at least 48 h; read-out: GI50, range over panel
KM12 = experiment: SRB 48 h growth assay, Colon KM12; type: cell-based, human
LOX IMVI = experiment: SRB 48 h growth assay, Melanoma LOX IMVI; type: cell-based, human
[3] = in vitro anticancer activity, non-small cell lung panel; type: cell-based; details: Homo sapiens; nine non-small cell lung cancer cell lines, exposure at least 48 h; read-out: GI50, range over panel
[4] = system: six leukemia cancer cell lines (CCRF-CEM, HL-60, K-562, MOLT-4, SR and RPMI-8226); experiment: in vitro anticancer activity, leukemia panel; type: cell-based; details: Homo sapiens, exposure at least 48 h, read-out: GI50, range over panel
SK-OV-3 = experiment: SRB 48 h growth assay, Ovarian SK-OV-3; type: cell-based, human; details: SK-OV-3, Ovarian
OVCAR-3 = experiment: SRB 48 h growth assay, Ovarian OVCAR-3; type: cell-based, human; details: Homo sapiens, OVCAR-3, Ovarian
[5] = system: seven colon cancer cell line (COLO 205, HCC-2998, HCT-116, HCT-15, HT29, KM12 and SW-620); experiment: in vitro anticancer activity, colon panel; type: cell-based; details: Homo sapiens; seven colon cancer cell lines, exposure at least 48 h; read-out: GI50, range over panel
[6] = in vitro anticancer activity, melanoma panel; type: cell-based; details: Homo sapiens; nine melanoma cell lines, exposure at least 48 h; read-out: GI50, range over panel
UACC-257 = experiment: SRB 48 h growth assay, Melanoma UACC-257; type: cell-based, human; details: Homo sapiens, UACC-257, Melanoma
ACHN = experiment: SRB 48 h growth assay, Renal ACHN; type: cell-based, human
SK-MEL-5 = experiment: SRB 48 h growth assay, Melanoma SK-MEL-5; type: cell-based, human; details: SK-MEL-5, Melanoma
NCI-H23 = experiment: SRB 48 h growth assay, Non-small Cell Lung NCI-H23; type: cell-based, human
HS578T = experiment: SRB 48 h growth assay, Breast HS578T; type: cell-based, human
BT-549 = experiment: SRB 48 h growth assay, Breast BT-549; type: cell-based, human; details: BT-549, Breast
NCI-H522 = experiment: SRB 48 h growth assay, Non-small Cell Lung NCI-H522; type: cell-based, human
[7] = Homo sapiens, read-out: Growth Inhibition GI50
[8] = Homo sapiens, read-out: Log10 GI50 (converted)
[9] = Homo sapiens, read-out: Log10 LC50 (converted)
[10] = read-out: Growth Inhibition GI50
[11] = read-out: Log10 GI50 (converted)

C#Cc1ccc(-n2c(/C=C/c3ccc4ccccc4c3)nc3ncccc3c2=O)cc1 [4s, (E)-3-(4-Ethynylphenyl)-2-(2-(naphthalen-2-yl)vinyl)pyrido[2,3-d]pyrimidin-4(3H)-one]
GI50 (TK-10; [7]): 4.04 µM | GI50 (TK-10; [8]): 4.07 µM | CC50 (TK-10; [9]): > 100 µM | Log10 TGI50 (TK-10): >−4.00 | GI50 (HCT-116; [10]): 2220 nM | GI50 (HCT-116; [11]): 2240 nM | Log10 TGI50 (CCRF-CEM): >−4.00 | CC50 (CCRF-CEM; Homo sapiens, CCKF-CEM, read-out: Log10 LC50 (converted)): > 100 µM | GI50 (CCRF-CEM; [7]): 1530 nM | GI50 (CCRF-CEM; [8]): 1510 nM | Log10 TGI50 (NCI/ADR-RES): >−4.00 | GI50 (NCI/ADR-RES; [7]): 3.29 µM | GI50 (NCI/ADR-RES; [8]): 3.31 µM | CC50 (NCI/ADR-RES; [9]): > 100 µM | Log10 TGI50 (786-0): >−4.00 | GI50 (786-0; [7]): 4.08 µM | GI50 (786-0; [8]): 4.07 µM | CC50 (786-0; [9]): > 100 µM | Log10 TGI50 (MCF7): >−4.00 | GI50 (MCF7; [7]): 2430 nM | GI50 (MCF7; [8]): 2450 nM | CC50 (MCF7; [9]): > 100 µM | GI50 (PC-3; [7]): 2350 nM | GI50 (PC-3; [8]): 2340 nM | CC50 (PC-3; [9]): > 100 µM | Log10 TGI50 (PC-3): >−4.00 | GI50 (MDA-MB-435; [7]): 2060 nM | GI50 (MDA-MB-435; [8]): 2040 nM | CC50 (MDA-MB-435; [9]): > 100 µM | Log10 TGI50 (MDA-MB-435): >−4.00 | Log10 TGI50 (HOP-62): >−4.00 | GI50 (HOP-62; [7]): 7.45 µM | GI50 (HOP-62; [8]): 7.41 µM | CC50 (HOP-62; [9]): > 100 µM | Log10 TGI50 (HOP-92): −5.16 | GI50 (HOP-92; [7]): 1630 nM | GI50 (HOP-92; [8]): 1620 nM | CC50 (HOP-92; [9]): 6.92 µM | GI50 [1]: 300 to 400 nM | GI50 [2]: 230 to 350 nM | Log10 TGI50 (KM12): >−4.00 | GI50 (KM12; [7]): 2950 nM | GI50 (KM12; [8]): 2950 nM | CC50 (KM12; [9]): > 100 µM | Log10 TGI50 (LOX IMVI): −5.51 | GI50 (LOX IMVI; [7]): 510 nM | GI50 (LOX IMVI; [8]): 513 nM | CC50 (LOX IMVI; [9]): 3.09 µM | GI50 [3]: 180 to 700 nM | GI50 [4]: 260 to 450 nM | GI50 (SK-OV-3; [7]): 7.55 µM | GI50 (SK-OV-3; [8]): 7.59 µM | CC50 (SK-OV-3; [9]): > 100 µM | Log10 TGI50 (SK-OV-3): >−4.00 | GI50 (OVCAR-3; [10]): 2040 nM | GI50 (OVCAR-3; [11]): 2040 nM | GI50 [5]: 300 to 360 nM | GI50 [6]: 190 to 1210 nM | GI50 (UACC-257; [10]): 2110 nM | GI50 (UACC-257; [11]): 2090 nM | Log10 TGI50 (ACHN): >−4.00 | GI50 (ACHN; [7]): 2570 nM | GI50 (ACHN; [8]): 2570 nM | CC50 (ACHN; [9]): > 100 µM | GI50 (SK-MEL-5; [7]): 1160 nM | GI50 (SK-MEL-5; [8]): 1150 nM | CC50 (SK-MEL-5; [9]): 2510 nM | Log10 TGI50 (SK-MEL-5): −5.60 | Log10 TGI50 (NCI-H23): >−4.00 | GI50 (NCI-H23; [7]): 6.39 µM | GI50 (NCI-H23; [8]): 6.46 µM | LC50 (NCI-H23; [9]): > 100 µM | Log10 TGI50 (HS578T): >−4.00 | GI50 (HS578T; Homo sapiens, Hs-578T, read-out: Growth Inhibition GI50): 7.62 µM | GI50 (HS578T; Homo sapiens, Hs-578T, read-out: Log10 GI50 (converted)): 7.59 µM | CC50 (HS578T; Homo sapiens, Hs-578T, read-out: Log10 LC50 (converted)): > 100 µM | Log10 TGI50 (BT-549): −5.26 | GI50 (BT-549; [7]): 1980 nM | GI50 (BT-549; [8]): 2000 nM | CC50 (BT-549; [9]): 5.5 µM | Log10 TGI50 (NCI-H522): >−4.00 | GI50 (NCI-H522; [7]): 5.11 µM | GI50 (NCI-H522; [8]): 5.13 µM | CC50 (NCI-H522; [9]): > 100 µM
